# Values joined by “and” are separate entries in the source; they are usually repeats but may differ in a detail not shown here. Equal values may be shown once.
# What was measured:
# [1] = molecular target: T1, 5-hydroxytryptamine receptor 7 (Homo sapiens, UniProt P34969); test: Binding affinity towards human 5-hydroxytryptamine 7 receptor
# [2] = molecular target: 5-hydroxytryptamine receptor 7 (Rattus norvegicus, UniProt P32305); test: Binding affinity towards rat 5-hydroxytryptamine 7 receptor; conditions: read-out: Ki
# [3] = molecular target: T2, 5-hydroxytryptamine receptor 6 (Homo sapiens, UniProt P50406)
# [4] = molecular target: T3, 5-hydroxytryptamine receptor 5A (Homo sapiens, UniProt P47898); test: Binding affinity towards 5-hydroxytryptamine 5A receptor
# [5] = Antagonistoc activity of compound for 5-CT-mediated adenylate cyclase activity; type: functional
# [6] = molecular target: T3, 5-hydroxytryptamine receptor 5A; test: Binding affinity towards human 5-hydroxytryptamine 5A receptor was evaluated using [3H]-5-CT as radioligand
# [7] = molecular target: T4, 5-hydroxytryptamine receptor 5A (Mus musculus, UniProt P30966); test: Binding affinity towards mouse 5-hydroxytryptamine 5A receptor was evaluated using [3H]- LSD as radioligand
# [8] = molecular target: T4, 5-hydroxytryptamine receptor 5A; test: Binding affinity towards murine 5-hydroxytryptamine 5A receptor
# [9] = molecular target: Serotonin 2 (5-HT2) receptor (Homo sapiens, UniProt P41595+P28223+P28335); test: Binding affinity towards 5-HT2 receptor; type: protein assay
# [10] = molecular target: T5, Alpha-1A adrenergic receptor (Homo sapiens, UniProt P35348); test: Binding affinity towards alpha-1-adrenergic receptor
# T5 sequence (P35348 whole entry): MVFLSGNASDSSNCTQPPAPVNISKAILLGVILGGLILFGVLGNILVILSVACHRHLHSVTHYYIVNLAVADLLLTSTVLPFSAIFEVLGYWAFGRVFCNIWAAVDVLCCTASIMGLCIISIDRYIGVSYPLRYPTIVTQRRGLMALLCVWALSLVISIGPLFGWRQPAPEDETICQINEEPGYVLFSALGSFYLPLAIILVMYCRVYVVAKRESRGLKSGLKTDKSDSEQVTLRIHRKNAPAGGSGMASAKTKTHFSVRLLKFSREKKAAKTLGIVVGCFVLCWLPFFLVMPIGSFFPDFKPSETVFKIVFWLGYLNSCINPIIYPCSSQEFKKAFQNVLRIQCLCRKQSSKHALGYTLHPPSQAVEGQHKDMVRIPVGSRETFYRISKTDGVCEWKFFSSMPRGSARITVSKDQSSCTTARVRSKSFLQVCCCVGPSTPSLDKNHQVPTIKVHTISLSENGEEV
# [11] = molecular target: T6, Alpha-2A adrenergic receptor (Homo sapiens, UniProt P08913); test: Binding affinity towards Alpha-2 adrenergic receptor
# T6 sequence (P08913 whole entry): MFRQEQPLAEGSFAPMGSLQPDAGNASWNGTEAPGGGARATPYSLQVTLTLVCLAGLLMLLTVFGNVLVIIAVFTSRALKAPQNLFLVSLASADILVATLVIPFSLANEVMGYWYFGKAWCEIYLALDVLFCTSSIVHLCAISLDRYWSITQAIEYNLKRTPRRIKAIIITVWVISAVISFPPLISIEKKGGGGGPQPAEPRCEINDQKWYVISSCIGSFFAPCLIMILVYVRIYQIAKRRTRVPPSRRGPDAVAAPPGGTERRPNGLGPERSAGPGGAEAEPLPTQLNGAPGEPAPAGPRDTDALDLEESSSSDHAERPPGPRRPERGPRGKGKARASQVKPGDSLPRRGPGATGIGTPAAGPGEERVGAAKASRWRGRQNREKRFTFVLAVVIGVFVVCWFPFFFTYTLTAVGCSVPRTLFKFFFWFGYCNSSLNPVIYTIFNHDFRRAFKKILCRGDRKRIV
# [12] = molecular target: T7, 5-hydroxytryptamine receptor 3A (Homo sapiens, UniProt P46098); test: Binding affinity towards 5-hydroxytryptamine 3 receptor
# T7 sequence (P46098 whole entry): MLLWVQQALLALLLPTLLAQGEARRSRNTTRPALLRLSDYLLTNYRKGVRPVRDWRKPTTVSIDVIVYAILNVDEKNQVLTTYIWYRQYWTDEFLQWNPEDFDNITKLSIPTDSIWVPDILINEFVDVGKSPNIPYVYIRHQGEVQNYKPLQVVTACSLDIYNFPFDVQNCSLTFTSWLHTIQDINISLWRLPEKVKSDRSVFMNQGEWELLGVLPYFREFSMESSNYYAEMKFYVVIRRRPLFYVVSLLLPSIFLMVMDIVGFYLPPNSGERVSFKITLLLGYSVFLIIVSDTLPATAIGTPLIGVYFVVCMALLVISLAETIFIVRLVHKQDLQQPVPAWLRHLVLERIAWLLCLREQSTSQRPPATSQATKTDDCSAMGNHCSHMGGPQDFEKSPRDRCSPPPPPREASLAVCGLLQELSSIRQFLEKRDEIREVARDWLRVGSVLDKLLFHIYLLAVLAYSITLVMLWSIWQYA
# [13] = molecular target: T1, 5-hydroxytryptamine receptor 7
# [14] = molecular target: T2, 5-hydroxytryptamine receptor 6; test: Binding affinity towards human 5-hydroxytryptamine 6 receptor was evaluated using [3H]-LSD as radioligand
# [15] = molecular target: T3, 5-hydroxytryptamine receptor 5A; test: Binding affinity towards human 5-hydroxytryptamine 5A receptor
# [16] = molecular target: T2, 5-hydroxytryptamine receptor 6; test: Binding affinity towards human 5-hydroxytryptamine 6 receptor was evaluated using [125I]-2-iodo LSD as radioligand
# [17] = molecular target: T4, 5-hydroxytryptamine receptor 5A; test: Binding affinity towards mouse 5-hydroxytryptamine 5A receptor was evaluated using [3H]LSD as radioligand
# [18] = molecular target: 5-hydroxytryptamine receptor 2A (Homo sapiens, UniProt P28223); test: Binding affinity towards 5-hydroxytryptamine 2A receptor
# [19] = molecular target: T2, 5-hydroxytryptamine receptor 6; test: Antagonistic activity towards 5-hydroxytryptamine 6 receptor; type: functional; conditions: read-out: pA2 (converted)
# [20] = molecular target: T2, 5-hydroxytryptamine receptor 6; test: Binding affinity towards human 5-hydroxytryptamine 6 receptor
# [21] = Antagonistic activity of compound in 5-HT induced cAMP accumulation; type: functional
# T4 sequence (P30966 whole entry): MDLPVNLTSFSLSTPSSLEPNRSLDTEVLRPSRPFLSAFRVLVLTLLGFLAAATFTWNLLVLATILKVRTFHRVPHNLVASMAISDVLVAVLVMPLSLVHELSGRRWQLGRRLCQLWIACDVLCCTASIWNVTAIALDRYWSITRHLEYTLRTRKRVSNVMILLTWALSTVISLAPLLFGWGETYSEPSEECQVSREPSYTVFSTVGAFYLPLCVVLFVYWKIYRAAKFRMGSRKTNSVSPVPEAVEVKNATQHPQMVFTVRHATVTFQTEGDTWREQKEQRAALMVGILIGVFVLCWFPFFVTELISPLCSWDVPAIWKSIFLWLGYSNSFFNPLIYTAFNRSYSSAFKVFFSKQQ
# T2 sequence (P50406 whole entry): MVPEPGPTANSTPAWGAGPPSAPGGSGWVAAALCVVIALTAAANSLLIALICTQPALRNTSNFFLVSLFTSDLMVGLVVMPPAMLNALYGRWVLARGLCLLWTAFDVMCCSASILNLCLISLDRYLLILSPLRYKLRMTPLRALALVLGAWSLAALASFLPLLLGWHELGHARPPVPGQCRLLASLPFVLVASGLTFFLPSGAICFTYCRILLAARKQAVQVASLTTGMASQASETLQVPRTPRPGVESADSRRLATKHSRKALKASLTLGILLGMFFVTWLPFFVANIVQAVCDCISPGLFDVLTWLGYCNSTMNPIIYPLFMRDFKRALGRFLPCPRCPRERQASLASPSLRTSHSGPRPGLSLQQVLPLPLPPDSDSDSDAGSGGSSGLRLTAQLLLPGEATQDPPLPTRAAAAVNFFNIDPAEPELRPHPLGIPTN
# T3 sequence (P47898 whole entry): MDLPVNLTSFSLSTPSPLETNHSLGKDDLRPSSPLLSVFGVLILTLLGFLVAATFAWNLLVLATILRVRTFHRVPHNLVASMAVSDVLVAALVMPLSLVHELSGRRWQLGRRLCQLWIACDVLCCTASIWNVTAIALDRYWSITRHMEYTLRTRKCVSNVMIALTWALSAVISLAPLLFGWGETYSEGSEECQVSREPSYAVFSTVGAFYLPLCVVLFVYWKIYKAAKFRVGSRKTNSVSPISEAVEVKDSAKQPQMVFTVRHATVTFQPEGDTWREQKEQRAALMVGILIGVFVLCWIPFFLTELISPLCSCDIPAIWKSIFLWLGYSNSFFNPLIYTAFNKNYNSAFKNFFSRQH
# T1 sequence (P34969 whole entry): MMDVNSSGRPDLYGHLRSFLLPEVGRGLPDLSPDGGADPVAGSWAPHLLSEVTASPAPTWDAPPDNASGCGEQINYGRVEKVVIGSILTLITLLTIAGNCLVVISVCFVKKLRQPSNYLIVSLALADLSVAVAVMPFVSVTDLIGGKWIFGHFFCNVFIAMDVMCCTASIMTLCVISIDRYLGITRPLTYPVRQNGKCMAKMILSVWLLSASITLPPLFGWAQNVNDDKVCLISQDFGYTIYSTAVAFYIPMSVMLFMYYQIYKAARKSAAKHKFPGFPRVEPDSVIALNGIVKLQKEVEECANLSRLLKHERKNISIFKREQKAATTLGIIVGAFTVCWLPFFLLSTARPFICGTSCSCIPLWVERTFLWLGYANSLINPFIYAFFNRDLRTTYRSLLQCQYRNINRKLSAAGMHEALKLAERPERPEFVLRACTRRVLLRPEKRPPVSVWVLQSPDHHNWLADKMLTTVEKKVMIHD
# Chain of 5-hydroxytryptamine receptor 7 (Rattus norvegicus, UniProt P32305) (P32305 whole entry): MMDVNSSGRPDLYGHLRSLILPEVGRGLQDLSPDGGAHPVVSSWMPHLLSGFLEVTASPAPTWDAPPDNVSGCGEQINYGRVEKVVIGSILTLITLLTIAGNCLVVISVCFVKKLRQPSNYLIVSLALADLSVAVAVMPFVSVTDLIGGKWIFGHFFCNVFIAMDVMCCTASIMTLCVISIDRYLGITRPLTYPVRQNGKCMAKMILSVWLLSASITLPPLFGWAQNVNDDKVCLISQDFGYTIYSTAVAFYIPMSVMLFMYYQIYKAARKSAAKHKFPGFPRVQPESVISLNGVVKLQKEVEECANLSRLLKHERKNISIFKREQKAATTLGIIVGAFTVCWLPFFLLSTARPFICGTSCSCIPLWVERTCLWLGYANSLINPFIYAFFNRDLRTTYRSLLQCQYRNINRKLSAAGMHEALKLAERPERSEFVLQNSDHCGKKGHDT
# Chain of 5-hydroxytryptamine receptor 2A (P28223 whole entry): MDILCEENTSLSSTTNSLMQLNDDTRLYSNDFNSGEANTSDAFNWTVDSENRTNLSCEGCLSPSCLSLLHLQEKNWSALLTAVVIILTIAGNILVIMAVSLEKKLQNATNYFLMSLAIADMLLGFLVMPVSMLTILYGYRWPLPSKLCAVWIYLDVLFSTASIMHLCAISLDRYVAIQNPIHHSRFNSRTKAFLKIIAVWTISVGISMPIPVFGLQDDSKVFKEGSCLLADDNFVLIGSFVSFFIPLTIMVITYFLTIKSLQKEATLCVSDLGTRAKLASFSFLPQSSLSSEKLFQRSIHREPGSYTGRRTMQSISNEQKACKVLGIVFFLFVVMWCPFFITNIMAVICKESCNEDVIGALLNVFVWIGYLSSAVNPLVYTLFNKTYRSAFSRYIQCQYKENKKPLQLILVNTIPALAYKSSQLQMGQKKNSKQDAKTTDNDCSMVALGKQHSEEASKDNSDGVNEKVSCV
smiles,measurement,setting,value
CC1CCCN(CCC(C)N(C)S(=O)(=O)c2cccc3ccccc23)C1 (stereo not given),Ki,[1],32 nM and 125 nM and 65 nM
CN1CCN(C2=Nc3ccccc3Nc3sccc32)CC1,Ki,[2],104 nM
Nc1ccc(S(=O)(=O)Nc2cc(Br)cc3[nH]ccc23)cc1,Ki,[3],50 nM
Cl.O=S(=O)(c1ccc2cc[nH]c2c1)N1CCC[C@@H]1CCN1CCC(Oc2ccc(Cl)cc2)CC1,Ki,[4],168 nM
same,pA2,[5],8.1
CN1CCN(C2=Nc3cc(Cl)ccc3Nc3ccccc32)CC1 [CLOZAPINE],Ki,[6],1000 nM
CN1CCc2cccc3c2[C@H]1Cc1cccc(-c2ccccc2)c1-3,Ki,[1],9.78 nM
CO[C@]1(C)c2cccc3c2-c2c1ccc1c2[C@@H](C3)N(C)CC1,Ki,[1],1.1 nM
Cc1cccc(S(=O)(=O)N2CCC[C@@H]2CCN2CCC(C)CC2)c1 [SB-258741],Ki,[1],3 nM
CN1CCN(C2=Nc3ccccc3Oc3ccc(Cl)cc32)CC1 [LOXAPINE],Ki,[3],15 nM
c1ccc2c(N3CCNCC3)cccc2c1,Ki,[7],40 nM
C1CCN2CCNCC2C1 (stereo not given),Ki,[3],5 nM
Cn1c2c(c3ccccc31)CNCC2,Ki,[8],5300 nM
CNC(=O)Cn1c2c(c3ccccc31)CCN(CCCCC13CCCc4cccc(c41)NC3=O)C2 (stereo not given),Ki,[9],> 1000 nM
same,Ki,[1],4 nM
Cc1c(N=C2NCCN2)cccc1-c1ccccc1,Ki,[10],200 nM
same,Ki,[1],16 nM
same,Ki,[11],19 nM
CN(C)Cc1cn(S(=O)(=O)c2ccc(N)cc2)c2ccccc12,Ki,[3],6.9 nM
COc1ccc2c(c1)c(CCN(C)C)cn2S(=O)(=O)c1ccc(N)cc1,Ki,[3],2 nM
COc1ccc2[nH]c(C)c(CCN)c2c1,Ki,[12],> 10000 nM
same,Ki,[3],80 nM
CNc1cc(NS(=O)(=O)c2ccc(N)cc2)nc(N)n1,Ki,[3],1000 nM
CN1C[C@H](CNC(=O)OCc2ccccc2)C[C@@H]2c3cccc4[nH]cc(c34)C[C@H]21,Ki,[2],60 nM
same,Ki,[13],6.4 nM
same,Ki,[14],400 nM
O=c1[nH]c2ccccc2n1C1CCN(CCCC(c2ccc(F)cc2)c2ccc(F)cc2)CC1 [PIMOZIDE],Ki,[3],71 nM
Oc1ccccc1N1CCNCC1,Ki,[8],215 nM
COc1cccc2c(CCN(C)C)c[nH]c12,Ki,[3],19600 nM
Cc1[nH]c2ccc(O)cc2c1CCN,Ki,[15],> 10000 nM
same,Ki,[16],400 nM
same,Ki,[17],> 10000 nM
CN1CCc2ccc3c4c2[C@H]1Cc1cccc(c1-4)[C@@H]3N,Ki,[10],373 nM
same,Ki,[18],469 nM
same,Ki,[1],18 nM
same,Ki,[11],92.8 nM
Clc1cccc(N2CCNCC2)c1 [CHLOROPHENYLPIPERAZINE],Ki,[8],8700 nM
same,Ki,[16],2300 nM
same,Ki,[17],8700 nM
COc1ccc2c(c1)c(CCN(C)C)cn2S(=O)(=O)c1ccccc1,Ki,[3],2.1 nM
same,Kb,[19],1.32 nM
COc1ccc2c(CCN(C)C)c[nH]c2c1,Ki,[3],8000 nM
O=C(c1ccc(F)cc1)C1CCN(CCn2c(=O)[nH]c3ccccc3c2=O)CC1 [KETANSERIN],Ki,[6],20000 nM
same,Ki,[15],20000 nM
COc1ccc2c(c1)c(CCN(C)C)cn2-c1ccccc1,Ki,[3],33 nM
CNc1cc(Br)cc(NS(=O)(=O)c2ccc(N)cc2)c1,Ki,[3],20 nM
CN(C)CCc1cn(S(=O)(=O)c2ccc(N)cc2)c2ccccc12,Ki,[3],0.8 nM
CNc1cc(NS(=O)(=O)c2ccc(N)cc2)cc(NC)n1,Ki,[20],12 nM
same,pA2,[21],7.1
Cc1ccc(S(=O)(=O)n2cc3c4c(cccc42)[C@H](O)[C@@H](N)C3)cc1,Ki,[3],7.2 nM

# Source: ChEMBL document CHEMBL1145819 (J Med Chem, 2003)
